Key:
D1-D5 = assay: competition binding assay (NIMH PDSP), dopamine D1-D5; conditions: read-out: Binding affinity Ki, D1-D5
5-HT2C = target: T1, 5-HT2C (Homo sapiens, UniProt P28335); assay: 5-HT2C competition binding assay with [^3H]mesulergine (NIMH PDSP); conditions: for Ki: competition with [^3H]mesulergine, mean of three experiments ± SD, read-out: Binding affinity Ki, 5-HT2C
T1 sequence (P28335 33-458): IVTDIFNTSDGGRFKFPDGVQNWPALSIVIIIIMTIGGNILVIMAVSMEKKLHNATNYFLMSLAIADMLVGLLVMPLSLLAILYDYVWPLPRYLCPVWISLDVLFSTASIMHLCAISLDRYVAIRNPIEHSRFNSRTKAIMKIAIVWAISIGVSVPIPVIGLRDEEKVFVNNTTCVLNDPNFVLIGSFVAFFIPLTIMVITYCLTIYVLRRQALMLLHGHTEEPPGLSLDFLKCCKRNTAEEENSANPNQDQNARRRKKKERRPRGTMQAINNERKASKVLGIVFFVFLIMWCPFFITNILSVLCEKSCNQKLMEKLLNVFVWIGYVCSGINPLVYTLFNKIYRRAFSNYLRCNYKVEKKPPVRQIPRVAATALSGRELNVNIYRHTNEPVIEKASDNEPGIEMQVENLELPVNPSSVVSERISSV
Text: (§1) We selected 6 and 9 for carbon-11 radiolabelling and PET imaging studies.

5-HT2B = 5-HT2B (Homo sapiens, UniProt P41595); assay: competition binding assay (NIMH PDSP), 5-HT2B; conditions: mean of three experiments ± SD, read-out: Binding affinity Ki, 5-HT2B
Chain of 5-HT2B (P41595 whole entry, species assumed): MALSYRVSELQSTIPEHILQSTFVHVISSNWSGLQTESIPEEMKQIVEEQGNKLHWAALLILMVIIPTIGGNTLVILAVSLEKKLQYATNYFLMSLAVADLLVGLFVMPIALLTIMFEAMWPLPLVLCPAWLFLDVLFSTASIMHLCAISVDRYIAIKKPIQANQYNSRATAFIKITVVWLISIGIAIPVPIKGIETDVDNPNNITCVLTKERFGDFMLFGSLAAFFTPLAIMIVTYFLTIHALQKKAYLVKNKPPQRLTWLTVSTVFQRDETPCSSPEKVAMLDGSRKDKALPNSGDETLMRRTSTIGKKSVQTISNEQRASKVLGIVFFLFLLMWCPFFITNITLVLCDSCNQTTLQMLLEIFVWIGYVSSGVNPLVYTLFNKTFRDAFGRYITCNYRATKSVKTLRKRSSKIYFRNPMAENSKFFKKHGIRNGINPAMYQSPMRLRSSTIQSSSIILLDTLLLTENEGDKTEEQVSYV

5-HT5–7 = assay: competition binding assay (NIMH PDSP), 5-HT5–7; conditions: read-out: Binding affinity Ki, 5-HT5–7
5-HT1A = target: T2, 5-HT1A (Homo sapiens, UniProt P08908); assay: competition binding assay (NIMH PDSP), 5-HT1A; conditions: read-out: Binding affinity Ki, 5-HT1A
T2 sequence (P08908 1-422): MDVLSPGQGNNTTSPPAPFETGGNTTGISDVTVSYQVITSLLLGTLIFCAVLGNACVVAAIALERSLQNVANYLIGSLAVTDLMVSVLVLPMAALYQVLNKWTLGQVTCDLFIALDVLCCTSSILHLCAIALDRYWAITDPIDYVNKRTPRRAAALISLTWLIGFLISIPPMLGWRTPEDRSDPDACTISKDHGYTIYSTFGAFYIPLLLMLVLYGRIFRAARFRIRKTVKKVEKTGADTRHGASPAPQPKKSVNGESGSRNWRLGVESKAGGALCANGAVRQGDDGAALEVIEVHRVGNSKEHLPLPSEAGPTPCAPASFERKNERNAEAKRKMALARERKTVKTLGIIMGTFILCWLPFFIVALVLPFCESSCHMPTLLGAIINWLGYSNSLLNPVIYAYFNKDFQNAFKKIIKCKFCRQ

5-HT2A [1] = target: T3, 5-HT2A (Homo sapiens, UniProt P28223); assay: competition binding assay (NIMH PDSP), 5-HT2A; conditions: read-out: Binding affinity Ki, 5-HT2A
T3 sequence (P28223 whole entry, species assumed): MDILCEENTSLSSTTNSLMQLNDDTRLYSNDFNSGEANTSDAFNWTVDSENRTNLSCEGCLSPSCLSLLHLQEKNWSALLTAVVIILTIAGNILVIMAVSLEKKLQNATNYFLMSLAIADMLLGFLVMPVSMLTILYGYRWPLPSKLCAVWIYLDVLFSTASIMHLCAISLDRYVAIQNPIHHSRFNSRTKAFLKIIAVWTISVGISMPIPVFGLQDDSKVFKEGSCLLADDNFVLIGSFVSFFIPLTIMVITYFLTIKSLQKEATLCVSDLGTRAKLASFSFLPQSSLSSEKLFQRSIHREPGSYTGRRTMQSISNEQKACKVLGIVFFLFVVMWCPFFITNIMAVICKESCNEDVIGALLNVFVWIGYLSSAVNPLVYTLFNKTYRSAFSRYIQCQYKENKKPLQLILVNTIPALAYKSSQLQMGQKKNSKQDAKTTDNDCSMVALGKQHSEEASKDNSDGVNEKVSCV

5-HT2A [2] = target: T3, 5-HT2A; assay: primary binding, 5-HT2A
Text: as §1

[3] = parameters: method as in Hamprecht et al., 2007; conditions: ref Hamprecht et al., 2007; cited from earlier work
5-HT2CR [4] = system: 5-HT2CR; parameters: method as in Zeng et al., 2018; conditions: rhesus monkeys; ref Zeng et al., 2018; cited from earlier work
[5] = lipophilicity, octanol/phosphate buffer partition; type: physicochemical; conditions: pH 7.4, read-out: log P7.4
Experimental: [^11C]6 and [^11C]9 were prepared via O-methylation of 10 and 11 with [^11C]CH3I in the presence of 0.1 M Bu4NOH in DMF followed by HPLC purification, respectively. [^11C]6 and [^11C]9 were obtained in an average radiochemical yield of 37–44 ± 4% (n = 10, decay corrected) with ≥97% radiochemical and chemical purity. The total synthesis time was 50 ± 5 min end of bombardment and the specific activity were in the range of 0.5–1.2 Ci/μmol at time of injection. The lipophilicities of 6 and 9 (octanol/phosphate buffer partition) were measured. The log P7.4 values of [^11C]6 and [^11C]9 are 2.81 and 2.89, respectively, which are in the optimal range (1.0–3.0) for compounds expected to enter the brain readily.

5-HT2CR [6] = target: T4, 5-HT2CR (Rattus norvegicus, UniProt P08909); assay: microPET/CT brain imaging in rats; type: in vivo, Sprague–Dawley rats; conditions: for effect of pretreatment with SB-242084 on uptake: 0.1 mg/kg SB-242084 prior to injection; for ratio of uptake in choroid plexus to cerebellum, peak / ratio of uptake in hippocampus to cerebellum, peak: i.v., baseline, from time-activity curves
T4 construct: from tissue; host or cells: brain of living Sprague–Dawley rats (choroid plexus, hippocampus)
T4 sequence (P08909 33-460): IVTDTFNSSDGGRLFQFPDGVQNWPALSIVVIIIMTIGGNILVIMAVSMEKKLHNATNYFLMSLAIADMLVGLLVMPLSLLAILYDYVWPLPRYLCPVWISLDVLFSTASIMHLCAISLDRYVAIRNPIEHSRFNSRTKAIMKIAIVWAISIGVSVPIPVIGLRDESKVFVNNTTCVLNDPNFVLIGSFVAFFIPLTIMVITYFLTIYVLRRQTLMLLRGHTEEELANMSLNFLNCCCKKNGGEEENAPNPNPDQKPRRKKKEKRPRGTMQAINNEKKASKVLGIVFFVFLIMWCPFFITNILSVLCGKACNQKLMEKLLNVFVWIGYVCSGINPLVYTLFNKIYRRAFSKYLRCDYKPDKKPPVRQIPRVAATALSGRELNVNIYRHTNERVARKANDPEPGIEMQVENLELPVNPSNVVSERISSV
Experimental: [^11C]6 and [^11C]9 were intravenously administered to Sprague–Dawley rats and brain images were acquired with a Siemens Inveon microPET/CT imaging system, respectively (Figure 2).
FIGURE 2 PET analysis of [^11C]6 and [^11C]9 in Sprague–Dawley rats. (A) Summed images of [^11C]6 PET/CT data from 10 to 120 min p.i. at baseline. Orange arrows depict choroid plexus; Blue arrows depict hippocampus. (B) Summed images of [^11C]6 PET/CT data from 10 to 120 min p.i. after pretreatment with 0.1 mg/kg of SB-242084. (C) Mean (n = 3) time-activity curves for brain regions of interest of [^11C]6 at baseline with standard error. (D) Mean (n = 3) time-activity curves for brain regions of interest of [^11C]6 after pretreatment with 0.1 mg/kg of SB-242084 with standard error. (E) Mean (n = 3) time-activity curves for brain regions of interest of [^11C]9 at baseline with standard error. (F) Mean (n = 3) time-activity curves for brain regions of interest of [^11C]9 after pretreatment with 0.1 mg/kg of SB-242084 with standard error.

5-HT2CR [7] = assay: microPET brain imaging in rhesus monkeys; type: in vivo; conditions: rhesus monkey; for effect of pretreatment with SB-242084 on uptake in choroid plexus and hippocampus: target 0.1 mg/kg SB-242084 30 min prior to injection (soluble dose likely much less)
Text: [^11C]6 and [^11C]9 were further evaluated in rhesus monkeys using a Siemens MicroPET Focus 220 scanner (Figure 3). […] Ratios of uptake in choroid plexus, hippocampus, amygdala, frontal cortex to that in cerebellum peaked at 2.7, 1.6, 1.3, and 1.1, respectively.
FIGURE 3 PET-MRI analysis of [^11C]6 and [^11C]9 in rhesus monkey. (A) MicroPET images of [^11C]6 (left) and corresponding fused PET/MRI images summed over all time at baseline. (B) MicroPET images [^11C]6 (left) and corresponding fused PET/MRI images summed over all time after pretreatment with 0.1 mg/kg of SB-242084. (C) Time-activity curves of [^11C]6 for brain regions of interest at baseline study. (D) Time-activity curves of [^11C]6 for brain regions after pretreatment with SB-242084. (E) Time-activity curves of [^11C]9 for brain regions of interest at baseline study. (F) Time-activity curves of [^11C]9 for brain regions after pretreatment with SB-242084.
To test specific binding of [^11C]6 and [^11C]9 to the choroid plexus and hippocampus, an in vivo microPET blocking study was performed with 0.1 mg/kg SB-242084 30 min prior to injection, respectively. Unfortunately, due to the unexpected low solubility of SB-242084 in the injection form (10% ethanol in saline), the administered SB-242084 in soluble form to the monkeys was likely much less than the target 0.1 mg/kg. As a result, the uptake of [^11C]6 and [^11C]9 in the choroid plexus and hippocampus was still present.

5-HT2CR [8] = system: 5-HT2CR; parameters: method as in Neelamegam et al., 2014; conditions: PET imaging; ref Neelamegam et al., 2014; cited from earlier work

COc1ccc(N2Cc3cccc(Cl)c3C2=O)cc1OCCN1CCC(C)CC1 [Compound 6, 7-chloro-2-[4-methoxy-3-[2-(4-methylpiperidin-1-yl)ethoxy]phenyl]isoindolin-1-one]
Ki (D1-D5): > 1000 nM | Ki (5-HT2C): 2.2 ± 0.3 nM | 5-HT2C binding less than that for 9 (5-HT2C; relative to compound 9): 2–3 times | Ki (5-HT2B): 194 ± 74 nM | Ki (5-HT5–7): > 1000 nM | Ki (5-HT1A): > 1000 nM | Ki (5-HT2A [1]): > 1000 nM | primary bindings at 5-HT2A (5-HT2A [2]): < 50% | brain permeability as measured by brain to blood plasma ratio [3]: great

COc1ccc(N2Cc3cccc(F)c3C2=O)cc1OCCN1CCC(C)CC1 [Compound 8]
Ki (D1-D5): > 1000 nM | Ki (5-HT2C): 28 ± 14 nM | Ki (5-HT2B): 434 ± 204 nM | Ki (5-HT5–7): > 1000 nM | Ki (5-HT1A): > 1000 nM | Ki (5-HT2A [1]): > 1000 nM

COc1ccc(N2Cc3cccc(I)c3C2=O)cc1OCCN1CCC(C)CC1 [Compound 9, 7-iodo-2-[4-methoxy-3-[2-(4-methylpiperidin-1-yl)ethoxy]phenyl]isoindolin-1-one]
Ki (D1-D5): > 1000 nM | Ki (5-HT2C): 1.1 ± 0.3 nM | Ki (5-HT2B): 126 ± 28 nM | Ki (5-HT5–7): > 1000 nM | Ki (5-HT1A): > 1000 nM | Ki (5-HT2A [1]): > 1000 nM | primary bindings at 5-HT2A (5-HT2A [2]): < 50%

Cc1ccc2c(C(=O)Nc3ccc(Oc4cccnc4C)nc3)c[nH]c2c1 [[^11C]5, 6-methyl-N-[6-[(2-methyl-3-pyridinyl)oxy]-3-pyridinyl]1H-indole-3-carboxamide]
level of specific binding in the choroid plexus (5-HT2CR [4]): high | overall brain uptake and retention (5-HT2CR [4]): low

CC1CCN(CCOc2cc(N3Cc4cccc(Cl)c4C3=O)ccc2O[11CH3])CC1 [[^11C]6, [^11C]7-Chloro-2-[4-methoxy-3-[2-(4-methylpiperidin-1-yl)ethoxy]phenyl]isoindolin-1-one]
logD [5]: 2.81 | effect of pretreatment with SB-242084 on uptake (5-HT2CR [6]): reduction of radioactivity uptake in choroid plexus and hippocampus to the same level as of the cerebellum | ratio of uptake in choroid plexus to cerebellum, peak (5-HT2CR [6]): 1.8 | ratio of uptake in hippocampus to cerebellum, peak (5-HT2CR [6]): 1.2 | blood-brain barrier penetration (5-HT2CR [7]): excellent | SUV in choroid plexus (peak uptake) (5-HT2CR [7]; baseline): 5.6 | SUV in hippocampus (5-HT2CR [7]; baseline): 4.6 | ratio of uptake in amygdala to cerebellum, peak (5-HT2CR [7]; baseline): 1.3 | ratio of uptake in choroid plexus to cerebellum, peak (5-HT2CR [7]; baseline): 2.7 | ratio of uptake in frontal cortex to cerebellum, peak (5-HT2CR [7]; baseline): 1.1 | ratio of uptake in hippocampus to cerebellum, peak (5-HT2CR [7]; baseline): 1.6 | time of peak radioactivity uptake in choroid plexus (5-HT2CR [7]; baseline, after injection): 20 to 30 min | time of peak uptakes in hippocampus, amygdala, frontal cortex and cerebellum (5-HT2CR [7]; baseline, postinjection): 9.5 to 18.5 min | effect of pretreatment with SB-242084 on uptake in choroid plexus and hippocampus (5-HT2CR [7]): a reduction in the uptake and faster washout

CC1CCN(CCOc2cc(N3Cc4cccc(I)c4C3=O)ccc2O[11CH3])CC1 [[^11C]9, [^11C]7-iodo-2-[4-methoxy-3-[2-(4-methylpiperidin-1-yl)ethoxy]phenyl]isoindolin-1-one]
logD [5]: 2.89 | effect of pretreatment with SB-242084 on uptake (5-HT2CR [6]): reduction of radioactivity uptake in choroid plexus and hippocampus to the same level as of the cerebellum | ratio of uptake in choroid plexus to cerebellum, peak (5-HT2CR [6]): 1.9 | ratio of uptake in hippocampus to cerebellum, peak (5-HT2CR [6]): 1.3 | blood-brain barrier penetration (5-HT2CR [7]): excellent | SUV in choroid plexus (peak uptake) (5-HT2CR [7]; baseline): 2.01 | SUV in hippocampus (5-HT2CR [7]; baseline): 1.46 | ratio of uptake in choroid plexus to cerebellum, peak (5-HT2CR [7]; baseline): 3.7 | ratio of uptake in hippocampus to cerebellum, peak (5-HT2CR [7]; baseline): 2.7 | time of peak uptake in choroid plexus and hippocampus (5-HT2CR [7]; baseline, after injection): 25 to 55 min | effect of pretreatment with SB-242084 on uptake in choroid plexus and hippocampus (5-HT2CR [7]): a reduction in the uptake and faster washout

c1cc2c3c(c1)[C@H]1CCC[C@H]1CN3CCN[11CH2]2 [[^11C]Vabicaserin]
non-specific binding in baboon brains (5-HT2CR [8]): high

c1cc2c3c(c1)[C@H]1CCC[C@H]1N3CCN[11CH2]2 [[^11C]WAY-163909]
non-specific binding in baboon brains (5-HT2CR [8]): high

— PMC8661056, “Synthesis and Evaluation of [^11C]7-Halogen-2-Phenyl Isoindolone Derivatives: Potential PET Radioligands for in vivo Imaging of 5-HT2C Receptors” (Frontiers in Neuroscience, 2021)
